Data published in patent US11976063B2, “Pharmaceutical composition comprising berberine and ursodeoxycholic acid for the treatment of various diseases or disorders” (priority 2014, dated 2024).

Legend:
[1] = system: high fat diet (HFD) induced non-alcoholic fatty liver mice; assay: High fat diet induced non-alcoholic fatty liver mice model (Example 5); format: in vivo, NIH male mice; conditions: for Body weight / Weight ratio of liver / ALT / AST / HDL-C / LDL-C / MDA / SOD / TC / TG: i.g. once daily, HFD, mean ± S.E.M; for ALT / AST / HDL-C / LDL-C / MDA / SOD / TC / TG: serum
Excerpt: This example describes an in vivo efficacy study of BUDCA disclosed in the present invention using a high fat diet (HFD) induced non-alcoholic fatty liver mice model.
91 NIH male mice of 4 weeks old were obtained from Vital River Laboratories (Beijing, China). After acclimatization for one week, 13 mice were selected as control group (Group 1, G1) with normal chow diet fed, and the other 78 mice were fed with HFD (in which 40% of calories is from fat) for 4 weeks to establish an animal model resembling the pathophysiology of non-alcoholic fatty liver in human.
Following 4 weeks of high fat dietary intervention, the 78 mice were divided into 6 groups according to body weight (n=13 per group): • Group 2, G2: Vehicle control (0.5% CMC-Na solution) • Group 3, G3: Low-dose group of BUDCA (30 mg/kg) • Group 4, G4: Middle-dose group of BUDCA (100 mg/kg) • Group 5, G5: High-dose group of BUDCA (300 mg/kg) • Group 6, G6: BBR control group (Berberine HCl, 150 mg/Kg) • Group 7, G7: UDCA control group (Ursodeoxycholic acid, 150 mg/Kg)
The mice from G2 to G7 were administered with the corresponding testing articles indicated above once daily by intragastric gavage. HFD continued throughout the duration of the treatment of 6 weeks. The normal mice (G1) were treated with vehicle (0.5% CMC-Na solution) via intragastric gavage. At the end of experiment, the following biochemical parameters were measured and tests were carried out: • Body weight, the weight ratio of liver • Total cholesterol (TC) and triglyceride (TG) levels, high density lipoprotein cholesterol (HDL-C) and low density lipoprotein cholesterol (LDL-C) levels • Alanine aminotransferase (ALT) and aspartate aminotransferase (AST) levels • Superoxide dismutase (SOD) activity and malondialdehyde (MDA) level • Oral glucose tolerance test (OGTT) • Histopathological examination of liver ([…] staining)
After 6 weeks treatment, blood was collected via retro-orbital bleeding of each 12-hour fasted animal. Liver was harvested by surgery for histopathology analysis after weight measurement. Then the serum was isolated for the determination of TC, TG, HDL-C, LDL-C, ALT, AST, SOD and MDA.
One week before sacrifice (Week 5 of treatment), an oral glucose tolerance test (OGTT) was performed in 12-hour fasted animals. For the OGTT, all mice received an oral glucose challenge at 2.0 g/Kg and the blood glucose concentrations were determined by glucometer (ACCU-CHEK Active, Roche) at 0, 30, 60, 90 and 120 min.
The liver tissue was histopathologically evaluated by […] staining after frozen section.

[2] = system: high fat diet (HFD) induced fatty liver golden hamster; assay: High fat diet-induced fatty liver golden hamster model (Example 6); format: in vivo, golden hamsters; conditions: for Serum TC level on Day 0 / Serum TG level on Day 0: Day 0 (before treatment); for Serum TC level on Day 0 / Serum TG level on Day 0 / Serum TC level, Week 1 / Serum TG level, Week 1 / Serum TC level, Week 3 / Serum TG level, Week 3 / Serum TC level, Week 5 / Serum TG level, Week 5 / Serum TC level, Week 7 / Serum TG level, Week 7: X ± s, n = 8
Excerpt: This example describes an in vivo efficacy study of BUDCA salt disclosed in the present invention using a high fat diet (HFD) induced fatty liver golden hamster model.
Forty-two SPF golden hamsters with the body weight of 90-100 g were acquired from Vital River Laboratory Animal Technology Co., Ltd. After acclimatization for one week, eight hamsters were selected as normal control group (Group 1), which were fed with normal chow diet. The rest thirty-four hamsters were fed with HFD for two weeks to establish a fatty liver animal model resembling the pathophysiology of NAFLD in human.
For the thirty-four hamsters induced with HFD, twenty-four of them with TC level of 17.96±1.70 mmol/L at the fourteenth day post of HFD were selected and randomized into three groups (n=8 per group): • Group 2: Model control (0.5% tragacanth solution 10 ml/kg); • Group 3: Low-dose (BUDCA 50 mg/kg); • Group 4: High-dose (BUDCA 200 mg/kg)
The hamsters from Group 2 to 4 were treated with corresponding testing articles indicated above once a day by intragastric gavage, and HFD continued throughout the duration of the 7-week administration. The normal hamsters in Group 1 were treated with 0.5% tragacanth solution (10 ml/kg) by intragastric gavage. Serum lipid and blood glucose level, liver function index, food intake and body weight were measured throughout the study. After the 7-week administration, the hamsters were sacrificed and dissected for the general observation and histopathological analysis of liver tissue.

[3] = BUDCA 50 mg/kg i.g. once a day, Week 1
[4] = BUDCA 200 mg/kg i.g. once a day, Week 1
[5] = BUDCA 200 mg/kg i.g. once a day
[6] = both high-dose and low-dose group, P<0.01, FIG. 16
[7] = both medicated groups, P<0.01, FIG. 22

COc1ccc2cc3[n+](cc2c1OC)CCc1cc2c(cc1-3)OCO2.C[C@H](CCC(=O)[O-])[C@H]1CC[C@H]2[C@@H]3[C@@H](O)C[C@@H]4C[C@H](O)CC[C@]4(C)[C@H]3CC[C@]12C [BUDCA, berberine ursodeoxycholate]
Body weight ([1]; BUDCA 30 mg/kg (G3), 6 weeks): 40.3 ± 1.18 g | Weight ratio of liver ([1]; BUDCA 30 mg/kg (G3), 6 weeks): 4.33 ± 0.13% | Body weight ([1]; BUDCA 100 mg/kg (G4), 6 weeks): 41.7 ± 1.59 g | Weight ratio of liver ([1]; BUDCA 100 mg/kg (G4), 6 weeks): 4.15 ± 0.09% | Body weight ([1]; BUDCA 300 mg/kg (G5), 6 weeks): 41.5 ± 1.16 g | Weight ratio of liver ([1]; BUDCA 300 mg/kg (G5), 6 weeks): 4.27 ± 0.10% | Effect on symptoms of non-alcoholic fatty liver (overall efficacy) ([1]; BUDCA 30-300 mg/kg, berberine or ursodeoxycholic acid monotherapy 150 mg/Kg, 6 weeks): dose-dependently ameliorated symptoms of non-alcoholic fatty liver | Gastrointestinal side effects at the time of sacrifice ([1]; BUDCA treated animals, 6 weeks i.g.): no gastrointestinal side effects were observed | ALT ([1]; BUDCA 30 mg/kg (G3), 6 weeks): 30.6 ± 4.37 U/L | AST ([1]; BUDCA 30 mg/kg (G3), 6 weeks): 148.3 ± 7.15 U/L | HDL-C ([1]; BUDCA 30 mg/kg (G3), 6 weeks): 2.33 ± 0.15 mmol/L | LDL-C ([1]; BUDCA 30 mg/kg (G3), 6 weeks): 1.05 ± 0.09 mmol/L | MDA ([1]; BUDCA 30 mg/kg (G3), 6 weeks): 12.34 ± 2.89 | SOD ([1]; BUDCA 30 mg/kg (G3), 6 weeks): 61.05 ± 11.59 U/mL | TC ([1]; BUDCA 30 mg/kg (G3), 6 weeks): 5.49 ± 0.25 mmol/L | TG ([1]; BUDCA 30 mg/kg (G3), 6 weeks): 1.18 ± 0.20 mmol/L | ALT ([1]; BUDCA 100 mg/kg (G4), 6 weeks): 29.0 ± 3.95 U/L | AST ([1]; BUDCA 100 mg/kg (G4), 6 weeks): 140.2 ± 16.32 U/L | HDL-C ([1]; BUDCA 100 mg/kg (G4), 6 weeks): 2.26 ± 0.22 mmol/L | LDL-C ([1]; BUDCA 100 mg/kg (G4), 6 weeks): 1.06 ± 0.11 mmol/L | MDA ([1]; BUDCA 100 mg/kg (G4), 6 weeks): 8.02 ± 1.08 µM | SOD ([1]; BUDCA 100 mg/kg (G4), 6 weeks): 91.83 ± 4.90 U/mL | TC ([1]; BUDCA 100 mg/kg (G4), 6 weeks): 5.28 ± 0.50 mmol/L | TG ([1]; BUDCA 100 mg/kg (G4), 6 weeks): 0.92 ± 0.06 mmol/L | ALT ([1]; BUDCA 300 mg/kg (G5), 6 weeks): 27.8 ± 3.08 U/L | AST ([1]; BUDCA 300 mg/kg (G5), 6 weeks): 163.5 ± 11.63 U/L | HDL-C ([1]; BUDCA 300 mg/kg (G5), 6 weeks): 2.48 ± 0.15 mmol/L | LDL-C ([1]; BUDCA 300 mg/kg (G5), 6 weeks): 1.03 ± 0.22 mmol/L | MDA ([1]; BUDCA 300 mg/kg (G5), 6 weeks): 7.78 ± 1.66 µM | SOD ([1]; BUDCA 300 mg/kg (G5), 6 weeks): 97.54 ± 4.88 U/mL | TC ([1]; BUDCA 300 mg/kg (G5), 6 weeks): 5.95 ± 0.54 mmol/L | TG ([1]; BUDCA 300 mg/kg (G5), 6 weeks): 0.85 ± 0.06 mmol/L | Dose dependence of the effects ([2]; 50 vs 200 mg/kg, 7 weeks): relatively dose-dependent | Serum TC level on Day 0 ([2]; BUDCA 50 mg/kg group): 18.14 ± 1.13 mmol/L | Serum TG level on Day 0 ([2]; BUDCA 50 mg/kg group): 5.97 ± 1.19 mmol/L | Serum TC level, Week 1 [2, 3]: 9.33 ± 1.52 mmol/L | Serum TG level, Week 1 [2, 3]: 3.60 ± 0.78 mmol/L | Serum TC level, Week 3 ([2]; BUDCA 50 mg/kg i.g. once a day): 7.58 ± 2.01 mmol/L | Serum TG level, Week 3 ([2]; BUDCA 50 mg/kg i.g. once a day): 2.98 ± 1.31 mmol/L | Serum TC level, Week 5 ([2]; BUDCA 50 mg/kg i.g. once a day): 10.50 ± 2.89 mmol/L | Serum TG level, Week 5 ([2]; BUDCA 50 mg/kg i.g. once a day): 4.51 ± 3.10 mmol/L | Serum TC level, Week 7 ([2]; BUDCA 50 mg/kg i.g. once a day): 9.78 ± 2.58 mmol/L | Serum TG level, Week 7 ([2]; BUDCA 50 mg/kg i.g. once a day): 3.88 ± 1.21 mmol/L | Serum TC level on Day 0 ([2]; BUDCA 200 mg/kg group): 18.18 ± 1.10 mmol/L | Serum TG level on Day 0 ([2]; BUDCA 200 mg/kg group): 6.31 ± 1.75 mmol/L | Serum TC level, Week 1 [2, 4]: 7.51 ± 0.71 mmol/L | Serum TG level, Week 1 [2, 4]: 3.00 ± 0.67 mmol/L | Serum TC level, Week 3 [2, 5]: 6.75 ± 1.00 mmol/L | Serum TG level, Week 3 [2, 5]: 2.68 ± 1.09 mmol/L | Serum TC level, Week 5 [2, 5]: 5.38 ± 1.24 mmol/L | Serum TG level, Week 5 [2, 5]: 3.04 ± 1.68 mmol/L | Serum TC level, Week 7 [2, 5]: 4.95 ± 0.84 mmol/L | Serum TG level, Week 7 [2, 5]: 1.90 ± 0.66 mmol/L | AI value (arterial stiffness index) vs model control group [2, 6]: significantly decreased | Serum LDL-c level vs model control group [2, 6]: significantly decreased | Value of TC/HDL-c vs model control group [2, 6]: significantly decreased | TC level vs model control group ([2]; both low-dose (50 mg/kg) and high-dose (200 mg/kg) group, P<0.01): significantly declined | Food intake vs model control group ([2]; both medicated groups (50 and 200 mg/kg), P>0.05): no significant difference on food intake | Serum AST level vs model control group ([2]; both medicated groups, after 7-week administration, P<0.01, FIG. 17): significantly declined | Serum ALT level vs model control group ([2]; both medicated groups, after 7-week administration, P<0.01, FIG. 18): significantly declined | Color of livers vs model control group ([2]; both medicated groups, FIG. 20): improved | Liver weight vs model control group ([2]; both medicated groups, P<0.01, FIG. 19): significantly decreased | Content of TC and TG in liver vs model control group ([2]; both medicated groups, P<0.01, FIG. 21): significantly decreased | Inflammation score of liver tissue vs model control group [2, 7]: significantly decreased | Positive area for oil red vs model control group [2, 7]: significantly decreased | TG level vs model control group, Week 1 and Week 7 ([2]; high-dose group (200 mg/kg), Week 1 and Week 7, P<0.01): significantly declined | Serum LDL-c level, value of TC/HDL-c and AI value compared with normal control group ([2]; high-dose group (200 mg/kg), after 7-week administration): very similar to those of normal control group | HDL-c level vs model control group ([2]; high-dose group (200 mg/kg), P<0.01): significantly declined | Body weight, first week of treatment ([2]; high-dose group (200 mg/kg), P<0.05): significantly reduced in the first week of treatment | Body weight, rest time of treatment ([2]; high-dose group (200 mg/kg), P>0.05): no significant changes were observed in the rest time of treatment | Color of livers ([2]; high-dose group (200 mg/kg), similar to normal control group): ruddy | Body weight vs model control group ([2]; low-dose and high-dose group, at sacrifice, P>0.05): no significant change observed | TG level vs model control group, Week 1 ([2]; low-dose group (50 mg/kg), Week 1, P<0.01): significantly declined | Body weight throughout the study ([2]; low-dose group (50 mg/kg), P>0.05): No significant changes were observed
